Data taken from patent US8003785B2 (Takeda Pharmaceutical Company Limited, priority 2008, dated 2011).

Molecular target: T1, PLK1 (Homo sapiens, UniProt P53350)
T1 construct: Full-length, active GST-PLK1 is purified from Sf9 insect cells; made in house; host or cells: Sf9 insect cells
Assay: Biochemical Characterization Assay: HTRF kinase assay, GST-PLK1 phosphorylation of GST-p53
Conditions: GST-PLK1, GST-p53 substrate
Summary of the method: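 Full-length active GST-PLK1 (Sf9, 3 ug/mL) phosphorylated full-length GST-p53 (E. coli) in Kinase Assay Buffer for 35 min at 37 °C. Stopped with EDTA; phospho-p53 detected by HTRF with anti-phospho-p53, Eu-anti-rabbit and APC-anti-GST antibodies.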

T1 sequence (P53350 whole entry): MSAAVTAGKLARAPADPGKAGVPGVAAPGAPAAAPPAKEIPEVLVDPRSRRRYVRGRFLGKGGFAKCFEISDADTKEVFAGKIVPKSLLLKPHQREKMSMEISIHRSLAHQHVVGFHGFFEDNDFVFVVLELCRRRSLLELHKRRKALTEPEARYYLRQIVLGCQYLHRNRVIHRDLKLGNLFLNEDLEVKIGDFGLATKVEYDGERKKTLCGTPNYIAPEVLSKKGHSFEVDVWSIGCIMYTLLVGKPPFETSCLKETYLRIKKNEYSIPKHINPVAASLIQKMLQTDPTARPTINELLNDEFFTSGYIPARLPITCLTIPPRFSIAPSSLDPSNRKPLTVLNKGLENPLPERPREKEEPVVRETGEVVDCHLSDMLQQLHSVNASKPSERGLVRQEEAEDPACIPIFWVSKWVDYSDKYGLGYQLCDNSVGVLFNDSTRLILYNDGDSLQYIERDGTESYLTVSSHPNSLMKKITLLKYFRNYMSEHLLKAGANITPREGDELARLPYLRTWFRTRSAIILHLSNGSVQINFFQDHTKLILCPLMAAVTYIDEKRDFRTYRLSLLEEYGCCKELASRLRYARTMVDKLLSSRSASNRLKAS

COc1cc(C(=O)N[C@H]2CN(C(=O)OCc3ccccc3)CC[C@@H]2OC)ccc1Nc1ncc2c(n1)N(C1CCCC1)CC(F)(F)C(=O)N2C (racemic) [Example I-58, rac-(3S,4S)-3-[4-(9-cyclopentyl-7,7-difluoro-5-methyl-6-oxo-6,7,8,9-tetrahydro-5H-pyrimido[4,5-b][1,4]diazepin-2-ylamino)-3-methoxy-benzoylamino]-4-methoxy-piperidine-1-carboxylic acid benzyl ester]
IC50 (ATP): 51 to 500 nM

COc1cc(C(=O)NCCN2CCCC2)ccc1Nc1ncc2c(n1)N(C1CCCC1)CC(F)(F)C(=O)N2C [Example I-45, 4-(9-cyclopentyl-7,7-difluoro-5-methyl-6-oxo-6,7,8,9-tetrahydro-5H-pyrimido[4,5-b][1,4]diazepin-2-ylamino)-3-methoxy-N-(2-pyrrolidin-1-yl-ethyl)-benzamide]
IC50 (ATP): 1 to 50 nM

CN1C(=O)C(F)(F)CN(C2CCCC2)c2nc(Nc3ccc(C(=O)NC4CCNCC4)cc3C(F)(F)F)ncc21 [Example I-212, 4-(9-cyclopentyl-7,7-difluoro-5-methyl-6-oxo-6,7,8,9-tetrahydro-5H-pyrimido[4,5-b][1,4]diazepin-2-ylamino)-N-piperidin-4-yl-3-trifluoromethyl-benzamide]
IC50: 1 to 50 nM

COc1cc(C(=O)NCCCCO)ccc1Nc1ncc2c(n1)N(C1CCCC1)CC(F)(F)C(=O)N2C [Example I-39, 4-(9-cyclopentyl-7,7-difluoro-5-methyl-6-oxo-6,7,8,9-tetrahydro-5H-pyrimido[4,5-b][1,4]diazepin-2-ylamino)-N-(4-hydroxy-butyl)-3-methoxy-benzamide]
IC50 (ATP): 1 to 50 nM
